Test [1] has as its target T1, maize enzyme cytokinin oxidase/dehydrogenase 1 (ZmCKX1) (Zea mays, UniProt Q9T0N8).
T1 construct: made in house; host or cells: Yarrowia lipolytica
Nature of the test: ZmCKX1 inhibition, PMS/MTT assay. The format is biochemical. How it is done:
The IC50 (concentration of a substance that causes 50% inhibition of the enzyme activity) was measured by PMS/MTT assay [phenazine methosulphate/3-(4,5-dimethylthiazol-2-yl)-2,5-diphenyltetrazolium bromide]. The assay was performed in 96-well microtiter plates. Each well contained a reaction mixture with a final concentration of: 0.1 M KH2PO4, pH 7.4, 1 mM MTT, 0.2 mM PMS, tested substance in a concentration range of 0.1 nM - 1 µM and 10 µM N^6-isopentenyladenine (iP) as a substrate. To this reaction mixture 100 µL of medium containing the active enzyme ZmCKX1 was added. The enzyme was produced by the yeast Yarrowia lipolytica and isolated according to the protocol (Kopečný D. et al., 2005, […] 87:1011-1022). The plates were incubated for 30 min at 37 °C and the enzymatic reaction was stopped by the addition of 25 µL of 35% acetic acid. Then, the absorbance at 578 nm was measured on a spectrophotometer, and the absorbance of the sample without the substrate was substracted as a reference value. The IC50 value was determined from the concentration-dependent curves in GraphPad Prism software. The values shown in Table 1 are the average of at least two measurements each performed in three repetitions. […] This also applies to 3,5-DCl-Ph-U derivatives.
(Tetrazolium assays rely on reduction of a dye to a coloured formazan, in cell work by metabolically active cells.)

Test [2] deals with segments of wheat leaves (Triticum aestivum cv. Hereward). Nature of the test: wheat leaf senescence assay performed in the dark (chlorophyll retention in detached leaf segments). The format is in vivo. The following applies: Triticum aestivum, foliar, 96 h, read-out: (% of chlorophyll above control). How it is done: Seeds of winter wheat (Triticum aestivum cv. Hereward) was washed under running water for 4 hours and then sown in vermiculite saturated with Knop's nutrient solution. The trays with seeds were placed in an air-conditioned growth chamber with a 16/8 hour light regime (light intensity 50 µmol.m^-2.s^-1) and a temperature of 15 °C. After 7 days, the seedlings had developed the first […] and the second leaf began to grow. Top sections approximately 4 cm long were excised from the first leaves of 4 plants and their combined weight was adjusted to exactly 100 mg. The basal ends of these 4 leaf segments were placed in the wells of microtiter polystyrene plates containing solution (150 µL) of the tested derivative. The plates were placed in a plastic box with filter paper, which was saturated with water (to maintain the maximum humidity). After 96 hours of incubation in the dark at 25 °C, the leaf segments were removed and the chlorophyll was extracted to 5 mL of 80% ethanol by heating the leaf segments in ethanol at 80 °C for 40 min. The sample volume was then adjusted to 5 mL by adding 80% ethanol. The absorbance of the extracts was measured at 665 nm. Chlorophyll extracts from leaf segments incubated in deionized water (so-called yellow control) were also measured as controls. Freshly cut leaves (100 mg) were used as a green control, from which chlorophyll was extracted and measured in the same manner. The calculated values are the average of 5 replicates and the whole experiment was repeated two times. The tested compounds were dissolved in dimethyl sulfoxide (DMSO) to a concentration 10^-2 M. This stock solution was further diluted with water to a concentration of 10 micromolar. At this concentration, the substances were tested.

The test system of test [3] is Arabidopsis thaliana (ecotype Col-0). Kind of test: abiotic stress (saline, osmotic) assay on Arabidopsis seedlings. The note with it: 10 nM, 6 days of growth after transfer. The format is in vivo. How it is done: Compound 61 was tested for its ability to alleviate the effects of abiotic stress, represented by application of 100 mM NaCl (saline stress) or 100 mM mannitol (osmotic stress), respectively. The assay was performed as described in (Ugena et al., 2018, Front Plant Sci. 9, 1327. doi: 10.3389/fpls.2018.01327). Arabidopsis thaliana (ecotype Col-0) seeds were germinated on full MS growth medium for three days without presence of any treatment. After that they were transferred to the same medium containing 10 nM concertation of compound 61 in the absence or presence of the abiotic stress factor. Dimethyl sulfoxide (DMSO) was used as a solvent control (mock) in all variants. The dynamics of the shoot biomass formation and the relative growth rate were evaluated by recording the green area twice a day during the 6 days of growth after the seedling transfer. The abiotic stress conditions caused severe penalty in both traits evaluated. The salt and mannitol stress reduced the shoot yield by 63 % and 42 %, respectively, whereas presence of the compound 61 turned back the penalty by almost 20 % (Table 3 and Fig. 1). […] 11 % (Table 3).

Test [4] has as its system Arabidopsis thaliana. Kind of test: foliar application, seed yield in Arabidopsis. The format is in vivo. On the procedure:
In our experiment, young Arabidopsis thaliana plants were grown in small pots in soil and they were sprayed with a 0.1 µM compound 61 (aq solution) in phase of 4 true leaves (about 14-20 days after sowing). Treated plants (n = 25) and control plants (n = 25) were further grown under optimal conditions until their natural death. Subsequently, seeds were harvested from all plants and the yield was evaluated. […] This means a 19 % increase in total seed yield.
This means an increase in total seed yield of 23 %.

The test system of test [5] is Arabidopsis thaliana. Nature of the test: foliar application, lifespan of Arabidopsis under optimal conditions. The test is classed as in vivo. The note with it: sprayed with 0.1 µM aqueous solution in phase of 4 true leaves, n = 25, compared to control plants. How it is done:
Young Arabidopsis thaliana plants grown in small pots in a soil were sprayed with a 0.1 µM aqueous solution of substance 61 in phase of 4 true leaves (within 14-20 days after sowing).
Treated plants (n = 25) and control plants (n = 25) were further grown under optimal conditions until their natural death as in Example 25. […] The treated plants remained more green for a longer period of time (delayed senescence), which allowed them to accumulate more products of photosynthesis, which in turn may have contributed to a higher yield of these plants.

Test [6] has as its system winter rapeseed. Kind of test: field trial, foliar application, seed yield of winter rapeseed. The test is classed as in vivo. The note with it: 5 µM in 300 L per hectare; for weight of one thousand seeds: control 5.51 g; for seed yield compared to the control (100 %): foliar. On the procedure: In 2017, the effect of foliar application of compound 61 (5 µM concentration in a volume of 300 L per hectare) on seed yield of winter rapeseed in field conditions was determined. The field trials were performed according to "good agricultural practice". Substance 61 was applied to plants in two different growth phases - BBCH 30 and BBCH 33-35. […] The weight of one thousand seeds in the treated plants was 5.7 g (BBCH 30) and 5.8 g (BBCH 33-35). This phenomenon contributed to the increase in total seed yield.

The mark [7] stands for this setting: sprayed with 0.1 µM aq solution in phase of 4 true leaves, n = 25, optimal conditions.

Molecules are shown by their SMILES. Values joined by “and” are separate entries in the source; they are usually repeats but may differ in a detail not shown here. Equal values may be shown once.

T1 sequence (Q9T0N8 19-534): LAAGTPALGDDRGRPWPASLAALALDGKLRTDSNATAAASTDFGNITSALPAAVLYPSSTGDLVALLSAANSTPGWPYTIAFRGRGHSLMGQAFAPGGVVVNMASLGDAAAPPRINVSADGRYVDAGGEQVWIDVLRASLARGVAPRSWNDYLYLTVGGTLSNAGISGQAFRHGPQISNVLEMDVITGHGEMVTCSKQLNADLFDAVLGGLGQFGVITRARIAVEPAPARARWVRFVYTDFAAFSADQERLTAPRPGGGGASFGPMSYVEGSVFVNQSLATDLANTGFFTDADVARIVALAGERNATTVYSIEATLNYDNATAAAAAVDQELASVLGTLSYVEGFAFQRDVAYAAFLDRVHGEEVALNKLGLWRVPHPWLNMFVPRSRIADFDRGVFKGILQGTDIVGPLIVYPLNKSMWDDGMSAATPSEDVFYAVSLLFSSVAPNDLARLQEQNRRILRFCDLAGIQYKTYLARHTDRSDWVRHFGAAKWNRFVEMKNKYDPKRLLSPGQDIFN

Turning to `O=C(Nc1cccc(OC(F)(F)F)c1)Nc1ccccc1CCO` [Compound 61, 1-[2-(2-Hydroxyethyl)phenyl]-3-(3-trifluoromethoxyphenyl)urea], the half-inhibitory concentration (IC50) (commonly the concentration that gives 50% inhibition) in test [1] stood at 180 nM. In test [2], the activation at 10 µM came out at 24%. Further, the “shoot yield: penalty caused by stress turned back” value in test [3] (100 mM NaCl (saline stress) or 100 mM mannitol (osmotic stress)) was about 20%. In addition, in test [3] (100 mM NaCl or 100 mM mannitol), the “average relative growth rate: effect of the stressors reduced” value was about 11%. In addition, the “increase in total seed yield” value in test [4] (0.1 µM spray, compared to control plants) is 19% and 23%. Besides, the “seeds per silique (average)” value in test [4] (setting [7]) is 52 (± 4) and 49 (± 6). Besides, the “total seed yield per plant” value in test [4] (setting [7]) was 155 (± 19) mg and 138 (± 15) mg. Further, in test [5], the “longer viability (average)” value amounted to 10 days. Moreover, the “weight of one thousand seeds” value in test [6] (applied at BBCH 30) is on record as 5.7 g; in test [6] (applied at BBCH 33-35), 5.8 g. The “seed yield compared to the control (100 %)” value was 105.7% in test [6] (applied at BBCH 30, 2017) and 107.5% in test [6] (applied at BBCH 33-35, 2017).

The record behind these values is patent EP4121415B1, “INHIBITORS OF CYTOKININ OXIDASE DERIVED FROM 1-[2-(HYDROXYALKYL)PHENYL]-3-YLUREA, USE THEREOF AND PREPARATIONS CONTAINING THESE DERIVATIVES” (Univerzita Palackého v Olomouci, priority 2020, dated 2021).
